Test results as given in patent publication US20220233553A1, “CELLULAR SENESCENCE ACTIVATING COMPOUNDS” (UNIVERSIDAD NACIONAL AUTONOMA DE MEXICO, priority 2019, published 2022).

Legend:
HCT-15 (colon) = assay: Effect on cell lines (CI50, % growth inhibition); assay type: cell-based; conditions: Homo sapiens; for IC50: HCT-15, read-out: CI50 ± EE, μM HCT-15 (colon)
PC-3 (prostate) = assay: Effect on cell lines (CI50, % growth inhibition); assay type: cell-based; conditions: for IC50: Homo sapiens, PC-3, read-out: CI50 ± EE, μM PC-3 (prostate)
K562 (leukemia) = assay: Effect on cell lines (CI50, % growth inhibition); assay type: cell-based; conditions: Homo sapiens; for IC50: K562, read-out: CI50 ± EE, μM K562 (leukemia)
U251 (CNS) = assay: Effect on cell lines (CI50, % growth inhibition); assay type: cell-based; conditions: Homo sapiens; for IC50: U-251, read-out: CI50 ± EE, μM U251 (CNS)
breast (MCF-7) = assay: % growth inhibition in cell lines; assay type: cell-based; conditions: Homo sapiens, MCF7
lung (SKUL) = assay: % growth inhibition in cell lines; assay type: cell-based
[1] = test system: HCT-116 cell xenotransplantation; assay: Cell morphology in tumor tissues (hematoxylin-eosin, DAPI); conditions: tumor tissues of treated mice vs control group
[2] = test system: proliferating cell nuclear antigen (PCNA); assay: PCNA immunolabelling of xenotransplanted tumor tissue; conditions: groups treated at different doses; control group 54.81%±15.63
β-galactosidase enzyme = assay: β-galactosidase activity (cellular senescence) in colon cancer cell lines; assay type: cell-based; conditions: 72 hours, 30 μM, colon cancer cell lines HCT-116 and HCT-15
Description: FIG. 12. A) β-galactosidase activity in HCT-116 cells, B) β-galactosidase activity in HCT-15 cells, C) Cell control of the HCT-116 cell line, D) HCT-116 cells treated with In […] for 72 hours.
Now, as already mentioned above, the mechanism by which In exerts an antitumor effect without generating cytotoxicity on healthy cells is through the induction of cellular senescence.

SW-620 = assay: Cytotoxicity against colon cancer cell lines, 24, 48 and 72 hours; assay type: cell-based
HCT-116 line = assay: Apoptosis induction, double labeling with annexin V and IP; assay type: cell-based; conditions: 30 μM, 72 hours of treatment
Source text: FIG. 2. Results of the apoptosis induction using a double labeling with annexin V and IP, due to the effect of compound In.

HCT-15 = assay: Cytotoxicity against colon cancer cell lines, 24, 48 and 72 hours; assay type: cell-based
HCT-116 = assay: as above; assay type: cell-based
HCT-116 cancer cells = assay: Xenotransplantation study, antitumor activity; assay type: in vivo, mice; conditions: for reduction in tumor size: vs untreated mouse
Source text: The arrows indicate the days of compound administration, in a regimen of 1 administration per week for 3 weeks, each point represents the average and SD of 6 mice.
The arrows indicate the days of administration, with 3 administrations per week for 3 weeks, each point representing the mean±SD of 6 mice.

[3] = Toxicity in nu/nu mice (LD50, weight, physical or behavioral changes); assay type: in vivo
Source text: FIG. 7. […] Each point in the graphs represents the mean±SD of the weight of 3 mice per experimental group.

[4] = Blood parameters of the treated mice
[5] = 2 mg/Kg, administration 3 (times a week)

CC(=O)O[C@H]1C[C@@]2(C)C3CCC4C(C)(C)C(=O)C=C[C@@]45C[C@@]35CC[C@]2(C)C1[C@]1(C)CC[C@H](C(C)(C)OC(C)=O)O1 (some centres unmarked) [Ic]
IC50 (HCT-15 (colon)): > 100 µM | IC50 (PC-3 (prostate)): 13.9 ± 0.324 µM | IC50 (K562 (leukemia)): > 100 µM | IC50 (U251 (CNS)): 58.4 ± 4 µM

CC1(C)c2oncc2C[C@]23C[C@]24CC[C@]2(C)C([C@]5(C)CC[C@H](C(C)(C)O)O5)[C@@H](O)C[C@@]2(C)C4CCC13 (some centres unmarked) [Ii]
IC50 (HCT-15 (colon)): 10.2 ± 0.77 µM | IC50 (PC-3 (prostate)): 13 ± 3.56 µM | IC50 (K562 (leukemia)): 11 ± 1.05 µM | IC50 (U251 (CNS)): 11.3 ± 1.55 µM

CC1(C)C(=O)CC[C@]23C[C@]24CC[C@]2(C)C([C@]5(C)CC[C@H](C(C)(C)O)O5)[C@@H](O)C[C@@]2(C)C4CCC13 (some centres unmarked) [In, Argentantine A]
inhibition at 50 µM (breast (MCF-7)): 26.6% | IC50 (HCT-15 (colon)): 31.7 ± 1.1 µM | inhibition at 50 µM (HCT-15 (colon); 50 μM, HCT-15): 31.7% | inhibition at 50 µM (lung (SKUL)): 0% | inhibition at 50 µM (PC-3 (prostate); 50 μM, PC-3): 20.2% | IC50 (PC-3 (prostate)): 20.2 ± 3.44 µM | fragmented nuclei (DAPI labeling) as signal of cell death [1]: no fragmented nuclei | quantification of PCNA (percentage of PCNA positive cells) [2]: 10-20% | β-galactosidase enzyme activity (β-galactosidase enzyme): observed predominantly in cells of the HCT-116 line | IC50 (SW-620; Homo sapiens, SW-620, incubation 24 h): 115.6 ± 0.4 µM | IC50 (SW-620; Homo sapiens, SW-620, incubation 48 h): 72.46 ± 0.2 µM | IC50 (SW-620; Homo sapiens, SW-620, incubation 72 h): 61.3 ± 1.2 µM | apoptosis induction (HCT-116 line): only induced apoptosis in the HCT-116 line | IC50 (HCT-15; Homo sapiens, HCT-15, incubation 24 h): 95.43 ± 0.6 µM | IC50 (HCT-15; Homo sapiens, HCT-15, incubation 48 h): 59.7 ± 1.3 µM | IC50 (HCT-15; Homo sapiens, HCT-15, incubation 72 h): 44.8 ± 0.9 µM | IC50 (HCT-116; Homo sapiens, HCT-116, incubation 24 h): 87.83 ± 0.7 µM | IC50 (HCT-116; Homo sapiens, HCT-116, incubation 48 h): 53.33 ± 0.2 µM | IC50 (HCT-116; Homo sapiens, HCT-116, incubation 72 h): 43.17 ± 0.4 µM | IC50 (K562 (leukemia)): 38.6 ± 4.47 µM | inhibition at 50 µM (K562 (leukemia); 50 μM, K562): 38.6% | reduction in tumor size (HCT-116 cancer cells; 250 mg/kg once a week for 21 days): 49.1% | reduction of the tumor (HCT-116 cancer cells; 250 mg/kg three times a week for 21 days, vs untreated mice): 78.1% | reduction in tumor size (HCT-116 cancer cells; 500 mg/kg once a week for 21 days): 48.8% | IC50 (U251 (CNS)): 27.3 ± 1 µM | inhibition at 50 µM (U251 (CNS); U-251, 50 μM, U251): 27.3% | physical or behavioral changes ([3]; 500 mg/kg once a week and 250 mg/kg three times a week for three weeks): no physical or behavioral changes | weight loss ([3]; 250 and 500 mg/kg): does not cause weight loss | toxicity ([3]; 500, 250 or 125 mg/kg once a week for 3 weeks, nu/nu mice): does not show toxicity | LD50 at 3 weeks ([3]; mouse, in vivo, intraperitoneal, nu/nu mice, read-out: mean lethal dose (LD50)): > 500 mg/kg

CC(=O)O[C@H]1C[C@@]2(C)C3CCC4C(C)(C)/C(=N/O)CC[C@@]45C[C@@]35CC[C@]2(C)C1[C@]1(C)CC[C@H](C(C)(C)OC(C)=O)O1 (some centres unmarked) [Ig]
IC50 (HCT-15 (colon)): 28.9 ± 3.17 µM | IC50 (PC-3 (prostate)): 12.6 ± 2.42 µM | IC50 (K562 (leukemia)): 15.2 ± 2.35 µM | IC50 (U251 (CNS)): 21.4 ± 1.67 µM

N.N.[Cl][Pt][Cl] [Cisplatin]
Alanine aminotransferase [4, 5]: 75.21 UL | Aspartate aminotransferase [4, 5]: 197.32 UL | Creatinine [4, 5]: 43.3 μM/l | Erythrocytes [4, 5]: 7.14e+12 L⁻¹ | Glucose [4, 5]: 7.80 mmol/L | Hemoglobin [4, 5]: 113 g/L | Leukocytes [4, 5]: 1.6e+09 L | Lymphocytes [4, 5]: 0.52 × × 10^9/l | Urea [4, 5]: 9.06 mmol/L | Alanine aminotransferase ([4]; 4 mg/Kg, once a week): 62.89 UL | Aspartate aminotransferase ([4]; 4 mg/Kg, once a week): 151.25 UL | Creatinine ([4]; 4 mg/Kg, once a week): 29.06 μM/l | Erythrocytes ([4]; 4 mg/Kg, once a week): 7.36e+12 L⁻¹ | Glucose ([4]; 4 mg/Kg, once a week): 8.56 mmol/L | Hemoglobin ([4]; 4 mg/Kg, once a week): 115 g/L | Leukocytes ([4]; 4 mg/Kg, once a week): 2.1e+09 L | Lymphocytes ([4]; 4 mg/Kg, once a week): 5.2e+08 L⁻¹ | Urea ([4]; 4 mg/Kg, once a week): 7.57 mmol/L | Leukocytes ([4]; 4 mg/kg once a week and mg/kg three times a week for 3 weeks): decreased leukocytes | IC50 (SW-620; SW-620, incubation 24 h): 18 ± 0.5 µM | IC50 (SW-620; SW-620, incubation 48 h): 13.9 ± 0.4 µM | IC50 (SW-620; SW-620, incubation 72 h): 9.09 ± 0.3 µM | IC50 (HCT-15; HCT-15, incubation 24 h): 12.5 ± 0.5 µM | IC50 (HCT-15; HCT-15, incubation 48 h): 10.7 ± 0.6 µM | IC50 (HCT-15; HCT-15, incubation 72 h): 4.68 ± 0.3 µM | IC50 (HCT-116; HCT-116, incubation 24 h): 10.8 ± 0.7 µM | IC50 (HCT-116; HCT-116, incubation 48 h): 8.37 ± 0.5 µM | IC50 (HCT-116; HCT-116, incubation 72 h): 3.09 ± 0.3 µM | tumor reduction compared with In 250 mg/kg (HCT-116 cancer cells; 2 mg/kg three times a week for 21 days): equivalent
